One data set deals with IgA. In words: Example 1: IgA in feces by ELISA before and after taking 1-kestose. It counts as in vivo, human. The text has this: (§1) The composition, containing 1-kestose used in this Example 1, is of a 1-kestose purity of 98%, composed of 1-kestose (98 weight %), nystose (1.0 weight %) and sucrose (1.0 weight %). An allergy-suppressive composition, having 1-kestose as an active ingredient, was given to 4 adult males having allergic symptoms, with each dose of 3g for one month. The feces before and after the composition was taken were collected to measure IgA and intestinal bacteria in the feces.
To measure IgA, the collected feces were diluted 20 times with phosphate buffered saline (PBS) and supernatant was collected by a centrifugal separator. Then, the liquid was diluted 10 times with water to make a sample for measurement. Also, an anti-human IgA mouse monoclonal antibody (product of Nacalai Tesque Inc.), and a horseradish peroxidase (HRP)-labeled antibody by labeling the antihuman IgA mouse monoclonal antibody with HRP were prepared. Afterward, IgA was measured using ELISA method.
For orientation: ELISA stands for enzyme-linked immunosorbent assay.

The test system of data set [1] is Bifidobacterium. In words: Example 1: intestinal bacteria in feces, anaerobic plate culture (Bifidobacterium). The following applies: after 3g for one month. It counts as in vivo, human.
Source text: as §1
Meanwhile, to measure intestinal bacteria, a sample liquid for measurement was dripped on a flat-plate agar medium by 0.05ml and applied thereon. After anaerobic culture of the sample at 35°C for 3 to 5 days, the bacteria were identified and bacterial count was found.

For another data set, the system named is anti-OVA IgG1. Put plainly: Example 2: oral immune tolerance, serum anti-OVA IgG1 by ELISA in human-flora associated mice. It counts as in vivo. The following applies: 1-kestose-administered group, 41 without 1-kestose, germfree mice 1583. How it is done:
(§2) In Example 2, to examine the effect of 1-kestose on the production of IgG1 and IgE, 1-kestose was administered to germfree […] to measure IgG1 and IgE amounts in the serum before and after giving 1-kestose.
(§3) In this Example 2, the mice used in the experiment were male […] with 4 weeks of age born and grown in a germfree condition (BALB/c), with 10 to 15 rats as a group. These mice were orally provided with 0.5ml of a liquid obtained by diluting feces of human infants 100 times and observed in a germfree condition for two weeks. Afterward, 5mg of ovalbumin (OVA) was orally administered to the mice for 4 days. To examine the existence of immune tolerance, a liquid obtained by adding 0.1 mg of aluminum hydroxide gel to 1 µg of OVA was injected into the abdominal cavity, 1, 3, 5 and 7 weeks after orally administering OVA. These human-flora associated mice were separated into 1-kestose-administered group and non-administered control group and anti-OVA IgG1 and anti-OVA IgE in the serum were measured by ELISA method, 9 weeks after administering 1-kestose.

In the next data set the test system is anti-OVA IgE. Put plainly: Example 2: oral immune tolerance, serum anti-OVA IgE by ELISA in human-flora associated mice. The data set is classed as in vivo. The note with it: 1-kestose-administered group, 204 without 1-kestose, germfree mice 496. The protocol:
as §2, §3

For data set [2], the system named is nonspecific IgE. Put plainly: Example 3: nonspecific IgE in human serum before and after taking 1-kestose. The data set is classed as in vivo. The following applies: adult with allergic symptoms, 3g for one month, standard value 366. The source says: In this Example 3, to examine the effect of 1-kestose on IgE amount in the human serum, the subjects were given 1-kestose to measure nonspecific IgE amount in the serum before and after taking 1-kestose.

The conditions of data set [3]: in vivo. The text has this: The subjects were 2 volunteer patients with allergic symptoms (adult male and female each). They took 3g of 1-kestose for one month and blood components like nonspecific IgE in the serum were examined.
For data set [4], the system named is Bifidobacterium. Put plainly: Example 4: improvement of enterobacterial flora in germfree mice, proportion of Bifidobacterium. It counts as in vivo. The note with it: orally administered for 5 days. The source says: In this Example 4, the effect of improving the enterobacterial flora of each composition composed of fructooligosaccharide was compared, using germfree mice. The fructooligosaccharide is composed of kestose (trisaccharide), nystose (tetrasaccharide) and F-nystose (pentasaccharide). The kestose used in this Example 4 is composed of 1-kestose (99.0%), nystose (0.5%) and sucrose (0.5%). The nystose is composed of nystose (99.0%), 1-kestose (0.9%) and sucrose (0.1 %). The F-nystose is composed of F-nystose (82.0%), other pentasaccharides (13.0%) and other components (5.0%). Additionally, control groups of mice dosed with sterile water and dosed with usual fructooligosaccharide (1-kestose: 35.8 weight %, nystose: 50.9 weight %, F-nystose: 8.5 weight %) were prepared and their data were obtained for comparison. […] Each oligosaccharide was orally administered to germfree mice for 5 days to determine the proportion of Bifidobacterium proliferated to total bacterial count.

Data set [5] concerns nonspecific IgE. In words: Example 5: nonspecific IgE after 1-kestose and after fructooligosaccharide intake. The data set is classed as in vivo, human. How it is done: In this Example 5, the subjects were 4 adult females (from 27 to 45 years old) with daily allergic symptoms. They took 1-kestose and fructooligosaccharide and nonspecific IgE of each subject was measured. In this experiment, nonspecific IgE before taking the substances was measured and then the subjects took 3g of 1-kestose after eating once a day for 4 weeks. The blood was collected 5 weeks later to measure nonspecific IgE and afterward they took no substances for 2 weeks. Then, the subjects took 3g of fructooligosaccharide after eating once a day for 4 weeks and the blood was collected. The 1-kestose used in this Example 5 has a purity of 95% or more, and the commercially-available fructooligosaccharide is a nystose-dominant oligosaccharide composed of nystose (51 %) and 1-kestose (36%). In the experiment, the subjects took less health foods like prebiotics and probiotics containing other oligosaccharides and Lactobacillus.

Data set [6] has as its system Bifidobacterium. Put plainly: Example 6: effective amount of 1-kestose, Bifidobacterium count in feces. It counts as in vivo, human. The note with it: for minimal effective dose: Bifidobacterium, po, read-out: effective amount of 1-kestose per 1kg body weight. The text has this:
(§4) According to the results of each above-mentioned Example, it was confirmed that an adult can have the effect of 1-kestose as prebiotics with a daily dose of 3g. […] The subjects were 4 health adult males whose age ranges from 38 to 56. The subject A is 67kg, subject B is 56kg, subject C is 59kg and subject D is 63kg in weight.
In the experiment, feces were first collected from each subject before taking 1-kestose, and counts of Bifidobacterium, Lactobacillus, Clostridium and total bacteria were measured. Then, they took 1g of 1-kestose once a day for 2 weeks. 15 days later, feces were collected from each subject to measure intestinal bacteria. Afterward, they took no 1-kestose for one week. From the 22nd day, they took 3g of 1-kestose once a day for two weeks, and feces were collected from each subject on the 36th day to measure intestinal bacteria. Figure 13 and Figure 14 show the results.

Data set [7] is described as follows: Example 6: 1-kestose intake with no side effect (diarrhea, organs, blood). On the set-up: species or system human. The following applies: in vivo. The text has this:
Meanwhile, the 1-kestose intake with no side effect was examined.

Data set [8] in a line: Volunteer experiment on bowel movement, daily dose 2g. The note with it: daily dose of 2g; volunteer subjects. The data set is classed as in vivo, human.
Source text: as §4

Data set [9] has as its system infants with atopic dermatitis. Put plainly: Example 7: clinical test in infants with atopic dermatitis, eruption severity. The data set is classed as in vivo, human. The text has this: (§5) The test subjects were 13 infants with atopic dermatitis and mild and severe eruption (age: 0 to 3 years old) in which food allergic symptoms were accompanied. The test was approved by parents of the subjects.
(§6) In the clinical test, the subjects were kept under observation for 2 weeks and they took 1-kestose with a purity of 98% mixed with water or juice once a day for 12 weeks. The subjects at age 1 or under were provided with 1g of 1-kestose a day and those at age 2 to 3 took 2g of 1-kestose a day. The test subjects used no external preparation of steroid for one month or more before taking 1-kestose. During the test, the subjects were treated mainly with a humectant and took food allergen removing food.
(§7) The subjects were diagnosed at the start of, 6 and 12 weeks after taking 1-kestose, and 4 to 8 weeks after the intake completion to assess the clinical test results (examination of dermis severity and stool samples). The inspection 4 to 8 weeks after the intake completion was aimed at examining drug efficacy sustaining effect. In the stool sample inspection, feces were collected form the subjects to calculate bifidobacterial occupancy in the feces. The eruption severity was examined using Severity Determination Method by Region of Severity Discussion Committee of Japanese Dermatological Association, in which by separating the entire body into 5 regions: head, anterior and posterior parts of the trunk, upper and lower extremities, the sum of comprehensive assessments is calculated in each region (on 0 to 4 scales).

Data set [10] has as its system Bifidobacterium. Put plainly: Example 7: clinical test, bifidobacterial occupancy in feces. It counts as in vivo, human. The following applies: before 30.1 %.
Source text: as §5, §6, §7

Data set [11] is classed as in vivo, human. The note with it: many subjects; 1g or 2g a day for 12 weeks.
Source text: as §6, with “The test subjects were 13 infants with atopic dermatitis and mild and severe eruption (age: 0 to 3 years old) in which food allergic symptoms were accompanied. The test was approved by parents of the subjects. In” for “In”

Where two headings read alike, the source gives them in different places. Some results are limits rather than exact numbers.

As to `OC[C@H]1O[C@@](CO)(OC[C@@]2(O[C@H]3O[C@H](CO)[C@@H](O)[C@H](O)[C@H]3O)O[C@H](CO)[C@@H](O)[C@@H]2O)[C@@H](O)[C@@H]1O` [1-kestose], in the data set on IgA (after vs before taking 3g for one month), the “increase of mean IgA concentration in feces” value is no less than 1.7 times. For the same compound, in the data set with IgA (mean of 4 adult males with allergic symptoms, 3g for one month, 0.61 before taking), the “mean IgA concentration in feces” value turned out to be 1.06 µg/mL. Further, in the data set on IgA (subjects A to C, 3g for one month), the “increase of IgA concentration in feces” value is “twice or more”. Moreover, the “mean bifidobacterial occupancy relative to the total bacterial count” value with Bifidobacterium [1] (mean, before 19.97%) is listed as 43.05%. The “bifidobacterial occupancy relative to the total bacterial count” value in the data set on Bifidobacterium [1] (subject A, before 11.67%) is given as 52.38%; in the data set on Bifidobacterium [1] (subject B, before 38.57%), 57.14%. In the data set on anti-OVA IgG1, the “anti-OVA IgG1 in the serum” value is given as 31 unit/ml. In addition, in the data set on anti-OVA IgE, the “anti-OVA IgE in the serum” value turned out to be 156 unit/ml. For the same compound, the “nonspecific IgE in the serum” value in the data set with nonspecific IgE [2] (before 381) is 313 IU/ml; with nonspecific IgE [2] (before 505) it was 354 IU/ml. In [3], the “C-reactive protein (CRP) value” was “negative”. Further, the “effect on hepatic functions, other organs and blood components” value in data set [3] was “no effect on hepatic functions, etc., other organs and blood components”. Moreover, in the data set with Bifidobacterium [4], the “proportion of Bifidobacterium proliferated to total bacterial count” value (shortened to “proportion”) stood at 12.59%. The “mean nonspecific IgE” value with nonspecific IgE [5] (mean of 4 adult females, 3g once a day for 4 weeks, before 403.8) worked out at 298.8 IU/ml. In the data set on nonspecific IgE [5] (mean of 4 subjects, vs before taking), the “decrease in mean nonspecific IgE” value is “approximately 26%”. The “nonspecific IgE” value in the data set with nonspecific IgE [5] (subject A, 3g once a day for 4 weeks, before 541) is 298 IU/ml; in the data set on nonspecific IgE [5] (subject B, 3g once a day for 4 weeks, before 422), 282 IU/ml; with nonspecific IgE [5] (subject C as printed, 3g once a day for 4 weeks, before 323) it was 275 IU/ml. Besides, the “decrease in nonspecific IgE” value was “approximately 45%” in the data set on nonspecific IgE [5] (subject A, vs before taking); no less than 32% with nonspecific IgE [5] (subject B, vs before taking); “approximately 25%” in the data set with nonspecific IgE [5] (subject C as printed, vs before taking). The “increase in nonspecific IgE” value in the data set with nonspecific IgE [5] (subject C, vs before taking) is given as “about 3%”. Further, the minimal effective dose in the data set with Bifidobacterium [6] (mean value) came out at 16 mg/kg; in the data set on Bifidobacterium [6] (subject A (67kg)), 15 mg/kg; with Bifidobacterium [6] (subject B (56kg)), 18 mg/kg; in the data set on Bifidobacterium [6] (subject C (59kg)), 17 mg/kg; with Bifidobacterium [6] (subject D (63kg)), 16 mg/kg. In the data set on Bifidobacterium [6] (adult with a weight of at least 60kg), the “effective 1-kestose amount” value was found to be 1 g per day. In [7] (human, po), this compound returned a 1-kestose intake with no side effect of no more than 400 mg/kg/day. Also, the diarrhea result in data set [7] is on record as “no diarrhea”. Further, in [7], the diarrhea symptoms result is given as “no diarrhea symptoms”. Further, in data set [7], the “effect on organs and blood component” value was “no effect on organs and blood component”. Moreover, the “effect on bowel movement” value in data set [8] is “improving bowel movement”. For the same compound, the “eruption (dermis severity, Japanese Dermatological Association method by region)” value in data set [9] (13 infants 0 to 3 years, 1g or 2g a day for 12 weeks, p 0.0022 start vs 12 weeks, p 0.0025 start vs 4 to 8 weeks after completion) is “significant improvement in eruption”. Moreover, the “number of subjects with no deterioration or recurrence of eruption” value in [9] (of 11 subjects, 4 to 8 weeks after taking 1-kestose for 12 weeks) is reported as “Seven”. The “number of subjects who completely removed eruption” value in [9] (of 13 subjects, 4 to 8 weeks after taking 1-kestose for 12 weeks) came to 6. In addition, the “mean bifidobacterial occupancy in feces” value turned out to be 32.7% with Bifidobacterium [10] (4 to 8 weeks after completion of 12 weeks intake); 42.3% with Bifidobacterium [10] (9 subjects, 6 weeks after taking); 56.0% in the data set on Bifidobacterium [10] (9 subjects, 12 weeks after taking, p 0.0308 vs start). For the same compound, the bowel movement entry in [11] is on record as “improved bowel movement”.

Turning to `OC[C@H]1O[C@@](CO)(OC[C@@]2(OC[C@@]3(OC[C@@]4(O[C@H]5O[C@H](CO)[C@@H](O)[C@H](O)[C@H]5O)O[C@H](CO)[C@@H](O)[C@@H]4O)O[C@H](CO)[C@@H](O)[C@@H]3O)O[C@H](CO)[C@@H](O)[C@@H]2O)[C@@H](O)[C@@H]1O` [F-nystose], the “proportion” value with Bifidobacterium [4] is reported as 7.94%.

Regarding `OC[C@H]1O[C@@](CO)(OC[C@@]2(OC[C@@]3(O[C@H]4O[C@H](CO)[C@@H](O)[C@H](O)[C@H]4O)O[C@H](CO)[C@@H](O)[C@@H]3O)O[C@H](CO)[C@@H](O)[C@@H]2O)[C@@H](O)[C@@H]1O` [nystose], in the data set on Bifidobacterium [4], the “proportion” value is listed as 7.94%.
